Results taken from patent publication US10017506B2, “ATX modulating agents” (BIOGEN MA INC., priority 2012, dated 2018).

What follows are molecules tested against T1, Human ATX protein (Homo sapiens, UniProt Q13822) (assay: ATX biochemical FRET assay with FS-3 substrate). Conditions: FRET substrate FS-3 2 μM, ATX 1.0 μg/mL, 30 minutes pre-incubation, 2 hours at room temperature; read-out: IC50.
T1 construct: made in house
Text: ATX (Autotaxin) is a 125 KDa glycoprotein with lysophospholipase D (LPLD) activity that generates the bioactive lipid lysophosphatidic acid (LPA) from lysophosphatidylcholine (LPC). The ATX biochemical assay utilizes a FRET (fluorescence resonance energy transfer) technology platform. The fluorescence signal of FRET substrate FS-3 is quenched due to intra-molecular FRET of a fluorophore to a non-fluorescing quencher (Ferguson, C. G., et al., Org Lett. 2006 May 11; 8(10): 2023-2026, which is incorporated by reference in its entirety). ATX catalyzes the hydrolysis of the substrate which separates the dabsyl quencher from the fluorescein reporter, which becomes fluorescent. The reaction is monitored by a SpectraMax M5 (Molecular Devices, Sunnyvale, Calif.) with at excitation wavelength 485 nm and emission wavelength […].
Fatty acid free-BSA (Sigma A8806): 10 mg/mL in H2O, stored at 4° C.
2×ATX assay buffer: 100 mM Tris, 280 mM NaCl, 10 mM KCl, 2 mM CaCl2, 2 mM MgCl2, pH 7.4.
Human ATX protein: expressed and purified in house. Stored at −80° C.
Substrate FS-3 (Echelon, L-2000): 100 μg in 77.74 μL H2O (1 mM stock), stored at −20° C.
384-well flat bottom plates—Corning #3575.
Compound dilution—All compounds were provided at 10 mM in 100% DMSO. In the first well, 2 μL of 10 mM compound was added to 78 μL of DMSO (1:40 dilution). In subsequent wells 3-fold dilution (total 10 dilutions) were performed.
1×ATX assay buffer was made up with a final concentration of 1 mg/mL fatty acid free-BSA using 2×ATX assay buffer, 10 mg/ml fatty acid free-BSA and ddH2O.
ATX protein was diluted with 1×ATX assay buffer to a concentration of 1.32 μg/mL (1.32×). 38 μL was added per well to the assay plate. The final concentration of ATX in the reaction as 1.0 μg/mL.
2 μL per well of compounds was transferred to provide the desired concentration. The plate was centrifuged, then incubated at room temperature for 30 minutes on the shaker.
Then, 10 μL was added per well to the assay plate. […] The plate was centrifuged. The plate was kept shaking at room temperature for 2 hours. Because FS-3 substrate is light sensitive, plates were kept covered and protected from light.
Fluorescence was measured using SpectraMax M5 (excitation at 485 nm/emission at 538 nm, top read).

IC50 [nM]	SMILES
≤ 250	CC[C@H]1CC[C@@H](Oc2ccc3ccc(C(C)N4CCC[C@H](CC(=O)O)C4)cc3c2C(F)(F)F)CC1 (stereo partly drawn) [Example 58, 2-((3R)-1-(1-(7-((cis-4-ethylcyclohexyl)oxy)-8-(trifluoromethyl)naphthalen-2-yl)ethyl)piperidin-3-yl)acetic acid]
≤ 100	CC[C@H]1CC[C@@H](Oc2ccc3ccc(C(C)NC4CC(C(=O)O)C4(C)C)cc3c2C(F)(F)F)CC1 (stereo partly drawn) [Example 59, 3-((1-(7-((cis-4-ethylcyclohexyl)oxy)-8-(trifluoromethyl)naphthalen-2-yl)ethyl)amino)-2,2-dimethylcyclobutanecarboxylic acid]
≤ 250	CCC(c1ccc2ccc(O[C@H]3CC[C@@H](CC)CC3)c(C(F)(F)F)c2c1)N1CCC(C(=O)O)CC1 (stereo partly drawn) [Example 60, 1-(1-(7-((cis-4-ethylcyclohexyl)oxy)-8-(trifluoromethyl)naphthalen-2-yl)propyl)piperidine-4-carboxylic acid]
≤ 250	CCC(c1ccc2ccc(O[C@H]3CC[C@@H](CC)CC3)c(C(F)(F)F)c2c1)N1CCC[C@H](CC(=O)O)C1 (stereo partly drawn) [Example 61, 2-((3R)-1-(1-(7-((cis-4-ethylcyclohexyl)oxy)-8-(trifluoromethyl)naphthalen-2-yl)propyl)piperidin-3-yl)acetic acid]
≤ 250	CC[C@H]1CC[C@@H](Oc2ccc3ccc(C(C)N[C@H]4C[C@@H](C(=O)O)C4(C)C)cc3c2Cl)CC1 (stereo partly drawn) [Example 67, (1R,3S)-3-((1-(8-chloro-7-((cis-4-ethylcyclohexyl)oxy)naphthalen-2-yl)ethyl)amino)-2,2-dimethylcyclobutanecarboxylic acid]
≤ 500	CC[C@H]1CC[C@@H](Oc2ccc3ccc(C(C)N4CCC(C(=O)O)CC4)cc3c2C#N)CC1 (stereo partly drawn) [Example 72, 1-(1-(8-cyano-7-((cis-4-ethylcyclohexyl)oxy)naphthalen-2-yl)ethyl)piperidine-4-carboxylic acid]
≤ 250	CC1(C)C(NCc2ccc3ccc(O[C@H]4CC[C@@H](C)CC4)c(C(F)(F)F)c3c2)CC1C(=O)O (stereo partly drawn) [Example 78, 2,2-dimethyl-3-(((7-((cis-4-methylcyclohexyl)oxy)-8-(trifluoromethyl)naphthalen-2-yl)methyl)amino)cyclobutanecarboxylic acid]
≤ 250	CC(c1ccc2ccc(O[C@H]3CC[C@@H](C)CC3)c(C(F)(F)F)c2c1)N1CCC(C(=O)O)CC1 (stereo partly drawn) [Example 80, 1-(1-(7-((cis-4-methylcyclohexyl)oxy)-8-(trifluoromethyl)naphthalen-2-yl)ethyl)piperidine-4-carboxylic acid]
≤ 250	CC(c1ccc2ccc(O[C@H]3CC[C@@H](C)CC3)c(C(F)(F)F)c2c1)N1CCC[C@H](CC(=O)O)C1 (stereo partly drawn) [Example 81, 2-((3R)-1-(1-(7-((cis-4-methylcyclohexyl)oxy)-8-(trifluoromethyl)naphthalen-2-yl)ethyl)piperidin-3-yl)acetic acid]
≤ 100	CC(NC1CC(C(=O)O)C1(C)C)c1ccc2ccc(O[C@H]3CC[C@@H](C)CC3)c(C(F)(F)F)c2c1 (stereo partly drawn) [Example 82, 2,2-dimethyl-3-((1-(7-((cis-4-methylcyclohexyl)oxy)-8-(trifluoromethyl)naphthalen-2-yl)ethyl)amino)cyclobutanecarboxylic acid]

Same assay, conditions: IC50, FRET substrate FS-3 2 μM, ATX 1.0 μg/mL, 30 minutes pre-incubation, 2 hours at room temperature

SMILES	IC50 [nM]
CC[C@H]1CC[C@@H](Oc2ccc3ccc(C(C)N4C5CCC4CC(C(=O)O)C5)cc3c2C(F)F)CC1 (stereo partly drawn) [Example 63, 8-(1-(8-(difluoromethyl)-7-((cis-4-ethylcyclohexyl)oxy)naphthalen-2-yl)ethyl)-8-azabicyclo[3.2.1]octane-3-carboxylic acid]	≤ 100
CC[C@H]1CC[C@@H](Oc2ccc3ccc(C(C)N4C5CCC4CC(C(=O)O)C5)cc3c2Cl)CC1 (stereo partly drawn) [Example 65, 8-(1-(8-chloro-7-((cis-4-ethylcyclohexyl)oxy)naphthalen-2-yl)ethyl)-8-azabicyclo[3.2.1]octane-3-carboxylic acid]	≤ 250
CC[C@H]1CC[C@@H](Oc2ccc3ccc(C(C)N4C5CCCC4CC(C(=O)O)C5)cc3c2Cl)CC1 (stereo partly drawn) [Example 66, 9-(1-(8-chloro-7-((cis-4-ethylcyclohexyl)oxy)naphthalen-2-yl)ethyl)-9-azabicyclo[3.3.1]nonane-3-carboxylic acid]	≤ 250
CC[C@H]1CC[C@@H](Oc2ccc3ccc(CN4C5CCC4CC(C(=O)O)C5)cc3c2C#N)CC1 (stereo partly drawn) [Example 70, 8-((8-cyano-7-((cis-4-ethylcyclohexyl)oxy)naphthalen-2-yl)methyl)-8-azabicyclo[3.2.1]octane-3-carboxylic acid]	≤ 100
CC[C@H]1CC[C@@H](Oc2ccc3ccc(CN4C5CCCC4CC(C(=O)O)C5)cc3c2C#N)CC1 (stereo partly drawn) [Example 71, 9-((8-cyano-7-((cis-4-ethylcyclohexyl)oxy)naphthalen-2-yl)methyl)-9-azabicyclo[3.3.1]nonane-3-carboxylic acid]	≤ 100
CC[C@H]1CC[C@@H](Oc2ccc3ccc(C(C)N4C5CCC4CC(C(=O)O)C5)cc3c2C#N)CC1 (stereo partly drawn) [Example 73, 8-(1-(8-cyano-7-((cis-4-ethylcyclohexyl)oxy)naphthalen-2-yl)ethyl)-8-azabicyclo[3.2.1]octane-3-carboxylic acid]	≤ 100
CC[C@H]1CC[C@@H](Oc2ccc3ccc(C(C)N4C5CCCC4CC(C(=O)O)C5)cc3c2C#N)CC1 (stereo partly drawn) [Example 74, 9-(1-(8-cyano-7-((cis-4-ethylcyclohexyl)oxy)naphthalen-2-yl)ethyl)-9-azabicyclo[3.3.1]nonane-3-carboxylic acid]	≤ 100
C[C@H]1CC[C@@H](Oc2ccc3ccc(CN4C5CCC4CC(C(=O)O)C5)cc3c2Cl)CC1 (stereo partly drawn) [Example 83, 8-((8-chloro-7-((cis-4-methylcyclohexyl)oxy)naphthalen-2-yl)methyl)-8-azabicyclo[3.2.1]octane-3-carboxylic acid]	≤ 250
C[C@H]1CC[C@@H](Oc2ccc3ccc(CN4C5CCCC4CC(C(=O)O)C5)cc3c2C(F)F)CC1 (stereo partly drawn) [Example 86, 9-((8-(difluoromethyl)-7-((cis-4-methylcyclohexyl)oxy)naphthalen-2-yl)methyl)-9-azabicyclo[3.3.1]nonane-3-carboxylic acid]	≤ 100
CC(c1ccc2ccc(O[C@H]3CC[C@@H](C)CC3)c(C(F)F)c2c1)N1C2CCC1CC(C(=O)O)C2 (stereo partly drawn) [Example 87, 8-(1-(8-(difluoromethyl)-7-((cis-4-methylcyclohexyl)oxy)naphthalen-2-yl)ethyl)-8-azabicyclo[3.2.1]octane-3-carboxylic acid]	≤ 100
CC(c1ccc2ccc(O[C@H]3CC[C@@H](C)CC3)c(C(F)F)c2c1)N1C2CCCC1CC(C(=O)O)C2 (stereo partly drawn) [Example 88, 9-(1-(8-(difluoromethyl)-7-((cis-4-methylcyclohexyl)oxy)naphthalen-2-yl)ethyl)-9-azabicyclo[3.3.1]nonane-3-carboxylic acid]	≤ 100
CC(c1ccc2ccc(O[C@H]3CC[C@@H](C)CC3)c(Cl)c2c1)N1C2CCC1CC(C(=O)O)C2 (stereo partly drawn) [Example 90, 8-(1-(8-chloro-7-((cis-4-methylcyclohexyl)oxy)naphthalen-2-yl)ethyl)-8-azabicyclo[3.2.1]octane-3-carboxylic acid]	≤ 250
CC(c1ccc2ccc(O[C@H]3CC[C@@H](C)CC3)c(Cl)c2c1)N1C2CCCC1CC(C(=O)O)C2 (stereo partly drawn) [Example 91, 9-(1-(8-chloro-7-((cis-4-methylcyclohexyl)oxy)naphthalen-2-yl)ethyl)-9-azabicyclo[3.3.1]nonane-3-carboxylic acid]	≤ 250
CCC(c1ccc2ccc(O[C@H]3CC[C@@H](C)CC3)c(Cl)c2c1)N1C2CCC1CC(C(=O)O)C2 (stereo partly drawn) [Example 95, 8-(1-(8-chloro-7-((cis-4-methylcyclohexyl)oxy)naphthalen-2-yl)propyl)-8-azabicyclo[3.2.1]octane-3-carboxylic acid]	≤ 500
C[C@H]1CC[C@@H](Oc2ccc3ccc(CN4C5CCC4CC(C(=O)O)C5)cc3c2C#N)CC1 (stereo partly drawn) [Example 96, 8-((8-cyano-7-((cis-4-methylcyclohexyl)oxy)naphthalen-2-yl)methyl)-8-azabicyclo[3.2.1]octane-3-carboxylic acid]	≤ 250
C[C@H]1CC[C@@H](Oc2ccc3ccc(CN4C5CCCC4CC(C(=O)O)C5)cc3c2C#N)CC1 (stereo partly drawn) [Example 98, 9-((8-cyano-7-((cis-4-methylcyclohexyl)oxy)naphthalen-2-yl)methyl)-9-azabicyclo[3.3.1]nonane-3-carboxylic acid]	≤ 100
